biological target: T1, human neurotrypsin (Homo sapiens, UniProt P56730); assay: Determination of IC50 for human neurotrypsin; type: biochemical; conditions: human neurotrypsin; method of WO 2006/1103261; read-out: Neurotrypsin IC50
T1 sequence (P56730 21-875): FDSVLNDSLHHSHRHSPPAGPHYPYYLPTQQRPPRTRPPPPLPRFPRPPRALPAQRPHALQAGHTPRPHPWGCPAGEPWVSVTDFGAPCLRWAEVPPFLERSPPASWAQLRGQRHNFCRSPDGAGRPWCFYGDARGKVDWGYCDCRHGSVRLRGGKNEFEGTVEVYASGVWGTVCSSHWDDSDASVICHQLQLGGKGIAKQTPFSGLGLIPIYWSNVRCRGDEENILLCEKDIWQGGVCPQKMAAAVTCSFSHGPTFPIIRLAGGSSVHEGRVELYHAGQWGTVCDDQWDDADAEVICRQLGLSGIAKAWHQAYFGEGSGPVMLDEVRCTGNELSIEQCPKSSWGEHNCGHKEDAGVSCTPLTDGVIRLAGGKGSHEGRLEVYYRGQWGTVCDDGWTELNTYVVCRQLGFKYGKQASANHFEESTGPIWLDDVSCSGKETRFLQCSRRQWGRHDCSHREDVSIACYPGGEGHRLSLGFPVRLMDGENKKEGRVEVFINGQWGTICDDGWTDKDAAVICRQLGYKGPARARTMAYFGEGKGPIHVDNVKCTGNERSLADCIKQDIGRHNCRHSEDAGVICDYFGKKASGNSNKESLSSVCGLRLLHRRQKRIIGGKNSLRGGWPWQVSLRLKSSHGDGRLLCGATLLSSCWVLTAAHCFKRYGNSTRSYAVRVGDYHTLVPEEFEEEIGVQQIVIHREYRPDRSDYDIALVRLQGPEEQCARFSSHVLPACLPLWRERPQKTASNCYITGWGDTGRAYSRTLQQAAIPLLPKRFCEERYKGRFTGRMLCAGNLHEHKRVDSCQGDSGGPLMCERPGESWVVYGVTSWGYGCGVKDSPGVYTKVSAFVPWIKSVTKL
Protocol: Assessment of the potency of compounds of examples 1-311 in inhibiting the enzymatic activity of human neurotrypsin was performed according to the method described in patent application WO 2006/1103261

SMILES | IC50
O=C(Nc1ccc(Cl)cc1)c1ccc(C(=O)O)c(NC(=O)c2ccc(-c3ccccn3)s2)c1 [Example 144, 4-(4-Chlorophenyl-carbamoyl)-2-(5-(pyrid-2-yl)-thiophene-2-carboxamido)-benzoic acid] | 22.1 µM
O=C(NCc1ccc(Cl)cc1)c1ccc(C(=O)O)c(NC(=O)c2sc3ccccc3c2Cl)c1 [Example 148, 2-(3-Chloro-benzo[b]-thiophene-2-carboxamido)-4-(4-chlorobenzylcarbamoyl)-benzoic acid] | 4.3 µM
O=C(Nc1ccccn1)c1ccc(C(=O)O)c(NC(=O)c2sc3ccccc3c2Cl)c1 [Example 149, 2-(3-Chloro-benzo[b]-thiophene-2-carboxamido)-4-(pyridin-2-ylcarbamoyl)-benzoic acid] | 16.5 µM
CCOC(=O)CN(C(=O)c1ccc(C(=O)O)c(NC(=O)c2sc3ccccc3c2Cl)c1)c1ccc(Cl)cc1 [Example 156, 2-(3-Chlorobenzo[b]-thiophene-2-carboxamido)-4-(N-(4-chlorophenyl)-N-(ethoxycarbonylmethyl)-carbamoyl)benzoic acid] | 4.7 µM
O=C(NC1Cc2ccccc2C1)c1ccc(NC(=O)c2sc3ccccc3c2Cl)c(C(=O)O)c1 [Example 159, 2-(3-Chlorobenzo[b]-thiophene-2-carboxamido)-5-(indan-2-ylcarbamoyl)benzoic acid] | 6.5 µM
O=C(Nc1ccc(C(=O)N2CCC(Oc3ccccc3)CC2)cc1C(=O)O)c1cc2ccc(Cl)cc2s1 [Example 160, 2-(6-Chlorobenzo[b]thiophene-2-carboxamido)-5-(4-phenoxypiperidine-1-carbonyl)benzoic acid] | 3.9 µM
O=C(Nc1ccc(C(=O)N2CCC(Oc3ccccc3)CC2)cc1C(=O)O)c1ccc(-c2ccc(Cl)cc2)s1 [Example 162, 2-(5-(4-Chlorophenyl)-thiophene-2-carboxamido)-5-(4-phenoxypiperidine-1-carbonyl)benzoic acid] | 4.5 µM
O=C(NCc1c(F)cccc1F)c1ccc(NC(=O)c2cc3ccc(Cl)cc3s2)c(C(=O)O)c1 [Example 165, 2-(6-Chlorobenzo[b]-thiophene-2-carboxamido)-5-(2,6-difluorobenzyl-carbamoyl)benzoic acid] | 8.9 µM
O=C(O)c1ccc(C(=O)Nc2ccc(Cl)cc2)c(NC(=O)c2sc3ccccc3c2Cl)c1 [Example 188, 3-(3-Chlorobenzo[b]-thiophene-2-carboxamido)-4-(4-chlorophenylcarbamoyl)-benzoic acid] | 6.8 µM
O=C(O)c1ccc(C(=O)Nc2ccc(Cc3ccccc3)cc2)c(NC(=O)c2sccc2Cl)c1 [Example 196, 4-(4-Benzylphenyl-carbamoyl)-3-(3-chloro-thiophene-2-carboxamido)-benzoic acid] | 10.2 µM
O=C(O)c1ccc(NC(=O)c2ccc(Cl)s2)c(C(=O)Nc2ccc(Cl)cc2)c1 [Example 218, 3-(4-Chlorophenyl-carbamoyl)-4-(5-chloro-thiophene-2-carboxamido)-benzoic acid] | 40.8 µM
O=C(O)c1ccc(/C=C/Cc2ccccc2)cc1NC(=O)c1sc2ccccc2c1Cl [Example 246] | 98.4 µM
O=C(O)c1ccc(C#Cc2ccc(Cl)cc2)cc1NC(=O)c1sc2ccccc2c1Cl [Example 248] | > 150 µM
O=C(O)c1ccc(-c2cn(Cc3ccccc3)nn2)cc1NC(=O)c1sc2ccccc2c1Cl [Example 258] | 9.4 µM
O=C(O)c1ccc(-c2cn(Cc3c(F)cccc3F)nn2)cc1NC(=O)c1sc2ccccc2c1Cl [Example 260] | 11 µM
O=C(O)c1ccc(-c2cn(-c3ccc(Cl)c(C(F)(F)F)c3)nn2)cc1NC(=O)c1sc2ccccc2c1Cl [Example 261] | 5.5 µM
O=C(O)c1ccc(-c2cn(Cc3ccc(Cl)s3)nn2)cc1NC(=O)c1sc2ccccc2c1Cl [Example 262] | 7 µM
O=C(O)c1cc(-c2cn(-c3ccc(Cl)cc3)nn2)ccc1NC(=O)c1sc2ccccc2c1Cl [Example 263] | 4 µM
O=C(O)c1cc(NC(=O)c2sc3ccccc3c2Cl)ccc1C(=O)Nc1ccc(Cl)cc1 [Example 270, 5-(3-Chlorobenzo[b]thiophene-2-carboxamido)-2-(4-chlorophenyl-carbamoyl)benzoic acid] | 22.9 µM
O=C(O)c1cc(NC(=O)c2sc3ccccc3c2Cl)ccc1C(=O)Nc1ccc(Cl)cc1 [Example 271] | 14.2 µM
O=C(Nc1ccc(C(=O)O)c(NC(=O)c2sc3ccccc3c2Cl)c1)c1ccc(Cl)cc1 [Example 273] | 7.6 µM
O=C(Nc1ccc(C(=O)O)c(NC(=O)c2sc3ccccc3c2Cl)c1)c1ccc(Cl)s1 [Example 274] | 6.6 µM

Further compounds by falling IC50, results first:

IC50 | SMILES
3.9 µM | O=C(Nc1ccc(Cl)cc1)c1ccc(C(=O)O)c(NC(=O)c2cc(Br)cc(Br)c2O)c1 [Example 143, 4-(4-Chlorophenyl-carbamoyl)-2-(3,5-dibromo-2-hydroxybenzamido)benzoic acid]
3.8 µM | O=C(O)c1cc(C(=O)N2CCC(Cc3ccccc3)CC2)ccc1NC(=O)c1sc2ccccc2c1Cl [Example 157, 5-(4-Benzylpiperidine-1-carbonyl)-2-(3-chlorobenzo[b]thiophene-2-carboxamido)benzoic acid]
3.8 µM | O=C(Nc1ccc(C(=O)N2CCC(Cc3ccccc3)CC2)cc1C(=O)O)c1cc2ccc(Cl)cc2s1 [Example 158, 5-(4-Benzylpiperidine-1-carbonyl)-2-(6-chloro-benzo[b]thiophene-2-carboxamido)benzoic acid]
3.8 µM | O=C(O)c1ccc(-c2cn(-c3ccc(Cl)cc3)nn2)cc1NC(=O)c1sc2ccccc2c1Cl [Example 257, 2-(3-Chlorobenzo[b]thiophene-2-carboxamido)-4-(1-(4-chlorophenyl)-1H-1,2,3-triazol-4-yl)benzoic acid]
3.7 µM | O=C(Nc1ccc(Cl)cc1)c1ccc(-c2nn[nH]n2)c(NC(=O)c2sc3ccccc3c2Cl)c1 [Example 229, 3-Chloro-benzo[b]thiophene-2-carboxylic acid [5-(4-chloro-phenyl-carbamoyl)-2-(2H-tetrazol-5-yl)phenyl]amide]
3.7 µM | COc1ccc(-c2ccc(C(=O)O)c(NC(=O)c3ccc(-c4nc5cc(Cl)c(Cl)cc5[nH]4)cc3)c2)cc1 [Example 266]
3.5 µM | O=C(Nc1ccc(C(=O)N2CCC(Cc3ccc(Cl)cc3)CC2)cc1C(=O)O)c1cc2ccc(Cl)cc2s1 [Example 164, 2-(6-Chlorobenzo[b]-thiophene-2-carboxamido)-5-(4-(4-chlorobenzyl)piperidine-1-carbonyl)benzoic acid]
3.1 µM | N#Cc1ccc(-c2ccc(C(=O)O)c(NC(=O)c3sc4ccccc4c3Cl)c2)cc1 [Example 255]
3 µM | O=C(Nc1ccc(C(=O)N2CCC(Cc3ccccc3)CC2)cc1C(=O)O)c1ccc(-c2ccc(Cl)cc2)s1 [Example 161, 5-(4-Benzylpiperidine-1-carbonyl)-2-(5-(4-chloro-phenyl)thiophene-2-carboxamido)benzoic acid]
3 µM | O=C(Nc1ccc(C(=O)O)c(NC(=O)c2ccc(-c3ccccc3)s2)c1)c1ccc(Cl)s1 [Example 275]
2.8 µM | COc1ccc(-c2ccc(C(=O)O)c(NC(=O)c3sc4ccccc4c3Cl)c2)cc1 [Example 249]
2.7 µM | O=C(O)c1ccc(C(=O)N2CCC(O)(c3ccc(Cl)c(C(F)(F)F)c3)CC2)cc1NC(=O)c1sc2ccccc2c1Cl [Example 151, 4-(4-(4-Chloro-3-(trifluoro-methyl)phenyl)-4-hydroxy-piperidine-1-carbonyl)-2-(3-chlorobenzo[b]thiophene-2-carboxamido)benzoic acid]
2.6 µM | O=C(Nc1ccc(C(=O)N2CCC(c3ccccc3)CC2)cc1C(=O)O)c1cc2ccc(Cl)cc2s1 [Example 163, 2-(6-Chlorobenzo[b]-thiophene-2-carboxamido)-5-(4-phenylpiperidine-1-carbonyl)benzoic acid]
2.4 µM | O=C(O)c1ccc(-c2ccccc2Cl)cc1NC(=O)c1sc2ccccc2c1Cl [Example 250]
2.2 µM | COc1ccc2c(Cl)c(C(=O)Nc3cc(C(=O)Nc4ccc(Cl)cc4)ccc3C(=O)O)sc2c1 [Example 142, 2-(3-Chloro-6-methoxy-benzo[b]thiophene-2-carbox)-4-(4-chlorophenylcarbamoyl)-benzoic acid]
1.9 µM | O=C(Nc1ccc(C(=O)N2CCC(Cc3ccc(F)cc3)CC2)cc1C(=O)O)c1ccc(-c2nc3cc(Cl)c(Cl)cc3[nH]2)cc1 [Example 141, 2-(4-(5,6-Dichloro-1H-benzo[d]imidazol-2-yl)benzamido)-5-(4-(4-fluorobenzyl)piperidine-1-carbonyl)benzoic acid]
0.9 µM | O=C(Nc1ccc(Cl)cc1F)c1ccc(NC(=O)c2[nH]c3ccc(Cl)cc3c2-c2ccccc2)c(C(=O)O)c1 [Example 140]
0.5 µM | N#Cc1ccc(-c2ccc(C(=O)O)c(NC(=O)c3ccc(-c4nc5cc(Cl)c(Cl)cc5[nH]4)cc3)c2)cc1 [Example 267]

Reference: patent publication US20130261130A1, “NEUROTRYPSIN INHIBITORS” (priority 2010, published 2013)
